From paper PMC9127750, “Structure-based design of CDC42 effector interaction inhibitors for the treatment of cancer” (Cell reports, 2022)
Where “and” joins values, the source holds several entries; their conditions need not be identical. Equal values may be shown once.

Test system: WM3248 melanoma cells, 486 antibodies
Test: Reverse phase protein arrays (RPPA)
Assay type: cell-based, Human
From the text: Pellets were snap frozen in liquid nitrogen and shipped to MD Anderson Cancer Center core RPPA facility for RPPA analysis (Table S5). Three biological replicates for each sample were generated.
Nomenclatures on the RPPA heatmaps: name_of_antibody.species_of_antibody.status_of_antibody. V - antibody validated; C - validation of antibody in progress; Q - antibody nonspecific; E – under evaluation; antibodies raised in M - mouse, G - goat, R - rabbit, or T - rat.

Structure (SMILES): CN(C)c1cccc(Nc2cc(-c3ccccc3)nc(C3CCNCC3)n2)c1 [ARN22089, N1,N1-dimethyl-N3-(6-phenyl-2-(piperidin-4-yl)pyrimidin-4-yl)benzene-1,3-diamine]
- RPPA DNMT1.R.V (20 uM, single samples): 0.983 and 0.756 and 0.985
- RPPA DRP1.R.V (20 uM, single samples): 0.965
- RPPA DUSP6.R.C (20 uM, single samples): 1.060 and 1.859 and 1.429
- RPPA DYRK1B.R.C (20 uM, single samples): 1.009 and 1.052 and 0.953
- RPPA Dvl3.R.V (20 uM, single samples): 0.950 and 1.123
- RPPA E2F1.R.V (20 uM, single samples): 1.419 and 1.315 and 0.981
- RPPA E.Cadherin.R.V (20 uM, single samples): 0.828 and 1.005
- RPPA EGFR.R.V (20 uM, single samples): 1.031 and 1.102 and 1.106
- RPPA EGFR_pY1068.R.C (20 uM, single samples): 0.990 and 0.986
- RPPA EGFR_pY1173.R.V (20 uM, single samples): 1.027 and 1.077 and 1.112
- RPPA EMA.M.C (20 uM, single samples): 0.905 and 0.939 and 0.944
- RPPA ENY2.M.C (20 uM, single samples): 0.965 and 0.851 and 0.977
- RPPA ER.a.R.V (20 uM, single samples): 0.767 and 0.993 and 1.203
- RPPA ERCC1.R.C (20 uM, single samples): 1.137 and 1.100 and 0.957
- RPPA ERCC5.R.C (20 uM, single samples): 1.157 and 0.901 and 0.984
- RPPA ERRalpha.R.V (20 uM, single samples): 0.962 and 1.097 and 0.968
- RPPA EVI1.R.V (20 uM, single samples): 1.169 and 1.023 and 0.918
- RPPA Elk1_pS383.R.C (20 uM, single samples): 1.006 and 1.163 and 1.131
- RPPA Enolase.1.R.V (20 uM, single samples): 1.058 and 0.770 and 0.988
- RPPA Enolase.2.R.V (20 uM, single samples): 1.052 and 0.967 and 0.953
- RPPA EphA2.R.V (20 uM, single samples): 0.650 and 0.867 and 0.932
- RPPA EphA2_pY588.R.C (20 uM, single samples): 1.102 and 1.013 and 0.933
- RPPA Erk5.R.V (20 uM, single samples): 0.870 and 0.876
- RPPA Ets.1.R.V (20 uM, single samples): 1.428 and 0.989
- RPPA FABP5.R.C (20 uM, single samples): 1.054 and 0.987 and 1.035
- RPPA FAK.R.C (20 uM, single samples): 0.799 and 1.003 and 1.205
- RPPA FAK_pY397.R.V (20 uM, single samples): 0.986 and 1.046 and 0.989
- RPPA FANCD2.R.V (20 uM, single samples): 0.998 and 0.872 and 0.901
- RPPA FASN.R.V (20 uM, single samples): 1.033 and 0.807 and 0.695
- RPPA FGF.basic.R.C (20 uM, single samples): 0.959 and 0.928
- RPPA FN14.R.C (20 uM, single samples): 0.830 and 1.031 and 1.337
- RPPA FOXM1.R.V (20 uM, single samples): 1.401 and 0.852 and 0.917
- RPPA FOXO3.R.V (20 uM, single samples): 1.030 and 0.990
- RPPA FRS2.alpha_pY196.R.V (20 uM, single samples): 0.974 and 1.050 and 1.002
- RPPA FTO.R.V (20 uM, single samples): 1.174 and 0.828 and 0.929
- RPPA Fibronectin.R.V (20 uM, single samples): 0.643 and 1.194 and 1.130
- RPPA FoxO3a_pS318_S321.R.C (20 uM, single samples): 1.008 and 0.941
- RPPA G6PD.R.V (20 uM, single samples): 0.989 and 0.985 and 0.975
- RPPA GATA3.M.V (20 uM, single samples): 1.212 and 0.968
- RPPA GATA6.R.V (20 uM, single samples): 1.033 and 0.956 and 0.952
- RPPA GCLC.R.C (20 uM, single samples): 0.868 and 1.160
- RPPA GCLM.R.V (20 uM, single samples): 1.077 and 0.945 and 0.973
- RPPA GCN5L2.R.V (20 uM, single samples): 0.869 and 0.957
- RPPA GGPS1.M.V (20 uM, single samples): 1.005 and 0.891 and 0.957
- RPPA GRB2.R.V (20 uM, single samples): 0.953 and 0.884 and 1.030
- RPPA GRB7.R.V (20 uM, single samples): 0.848 and 1.110 and 1.171
- RPPA GSK.3B.R.C (20 uM, single samples): 0.916 and 0.817 and 0.970
- RPPA GSK.3a.b.M.V (20 uM, single samples): 1.009 and 0.884 and 0.977
- RPPA GSK.3a.b_pS21_S9.R.V (20 uM, single samples): 0.956 and 1.173 and 1.028
- RPPA Gab2.R.V (20 uM, single samples): 1.465 and 0.881 and 0.921
- RPPA Gli1.R.C (20 uM, single samples): 0.959 and 0.928 and 0.972
- RPPA Gli3.R.C (20 uM, single samples): 1.201
- RPPA Glucocorticoid.Receptor.R.V (20 uM, single samples): 1.195 and 1.220 and 0.975
- RPPA Glutamate.D1.2.R.V (20 uM, single samples): 1.284 and 0.987 and 1.014
- RPPA Glutaminase.R.C (20 uM, single samples): 1.004 and 0.974 and 1.096
- RPPA Granzyme.B.R.V (20 uM, single samples): 1.019 and 1.152 and 1.098
- RPPA Grp75.R.C (20 uM, single samples): 1.682 and 0.883 and 0.952
- RPPA Gys.R.V (20 uM, single samples): 0.810 and 1.025 and 1.174
- RPPA Gys_pS641.R.V (20 uM, single samples): 0.658 and 0.955
- RPPA H2AX_pS140.M.C (20 uM, single samples): 1.144 and 1.344 and 0.957
- RPPA HER2.M.V (20 uM, single samples): 1.022 and 0.960
- RPPA HER2_pY1248.R.V (20 uM, single samples): 1.010 and 1.097
- RPPA HER3.R.V (20 uM, single samples): 1.052 and 0.876 and 0.821
- RPPA HER3_pY1289.R.C (20 uM, single samples): 1.023 and 0.933
- RPPA HES1.R.V (20 uM, single samples): 0.979 and 1.109 and 1.059
- RPPA Heregulin.R.V (20 uM, single samples): 0.854 and 1.034 and 1.150
- RPPA eEF2.R.C (20 uM, single samples): 1.353 and 0.930 and 0.976
- RPPA eEF2K.R.V (20 uM, single samples): 1.420 and 1.250 and 1.117
- RPPA eIF4E.R.V (20 uM, single samples): 0.957 and 1.295 and 1.239
- RPPA eIF4E_pS209.R.V (20 uM, single samples): 0.903 and 1.310
- RPPA eIF4G.R.C (20 uM, single samples): 1.450 and 0.906 and 0.991
- DNMT1.R.V Norm_5 Average (5, average, normalized to 0): 1.028
- DRP1.R.V Norm_5 Average (5, average, normalized to 0): 1.024
- DUSP4.R.V Norm_5 Average (5, average, normalized to 0): 1.106
- DUSP6.R.C Norm_5 Average (5, average, normalized to 0): 1.186
- DYRK1B.R.C Norm_5 Average (5, average, normalized to 0): 0.920
- Dvl3.R.V Norm_5 Average (5, average, normalized to 0): 0.989
- E2F1.R.V Norm_5 Average (5, average, normalized to 0): 0.971
- E.Cadherin.R.V Norm_5 Average (5, average, normalized to 0): 0.851
- EGFR.R.V Norm_5 Average (5, average, normalized to 0): 1.030
- EGFR_pY1068.R.C Norm_5 Average (5, average, normalized to 0): 0.934
- EGFR_pY1173.R.V Norm_5 Average (5, average, normalized to 0): 1.022
